Tests used:
Assay in all cases: relative viability (nuclei count vs DMSO), 5 days (fraction); higher = more cells survive
4EGI-1 + Linsitinib = compound: O=C(O)C(Cc1ccccc1[N+](=O)[O-])=NNc1nc(-c2ccc(Cl)c(Cl)c2)cs1 (mixture of isomers) [4EGI-1] + C[C@]1(O)C[C@@H](c2nc(-c3ccc4ccc(-c5ccccc5)nc4c3)c3c(N)nccn32)C1 [Linsitinib] (partner 1 µM)
How it was run: (§1)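 Relative viability is defined as nuclei in treated wells over nuclei in vehicle wells. Duplicate plates were run and medians reported. Lung cancer cell lines in 1536-well plates were dosed by pin tool one day after seeding, with one drug or with a fixed anchor-drug dose plus five library-drug doses (not always all listed) in √10 steps, and nuclei were counted after 5 days.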

XMD8-85 + Alpelisib = compound: CN1CCN(CC1)C2=CC(=C(C=C2)NC3=NC=C4C(=N3)N(C5=CC=CC=C5C(=O)N4C)C)OC [XMD8-85] + Cc1nc(NC(=O)N2CCC[C@H]2C(N)=O)sc1-c1ccnc(C(C)(C)C(F)(F)F)c1 [Alpelisib] (partner 2 µM)
How it was run: as §1

XMD8-85 + Olaparib = compound: CN1CCN(CC1)C2=CC(=C(C=C2)NC3=NC=C4C(=N3)N(C5=CC=CC=C5C(=O)N4C)C)OC [XMD8-85] + O=C(c1cc(Cc2n[nH]c(=O)c3ccccc23)ccc1F)N1CCN(C(=O)C2CC2)CC1 [Olaparib] (partner 8 µM)
How it was run: as §1

4EGI-1 + Bortezomib = compound: O=C(O)C(Cc1ccccc1[N+](=O)[O-])=NNc1nc(-c2ccc(Cl)c(Cl)c2)cs1 (mixture of isomers) [4EGI-1] + CC(C)C[C@H](NC(=O)[C@H](Cc1ccccc1)NC(=O)c1cnccn1)B(O)O [Bortezomib] (partner 0.002 µM)
How it was run: as §1

EPLC-272H
relative viability (4EGI-1 + Linsitinib; first compound 0.5 µM): 1.31 | relative viability (4EGI-1 + Linsitinib; first compound 1.581 µM): 0.938 | relative viability (4EGI-1 + Linsitinib; first compound 5 µM): 1.19 | relative viability (4EGI-1 + Linsitinib; first compound 15.81 µM): 1.21 | relative viability (4EGI-1 + Linsitinib; first compound 50 µM): 1.24 | relative viability (XMD8-85 + Alpelisib; first compound 0.253 µM): 0.916 | relative viability (XMD8-85 + Alpelisib; first compound 0.8 µM): 0.93 | relative viability (XMD8-85 + Alpelisib; first compound 2.53 µM): 1.01 | relative viability (XMD8-85 + Alpelisib; first compound 8 µM): 0.624 | relative viability (XMD8-85 + Olaparib; first compound 0.08 µM): 0.853 | relative viability (XMD8-85 + Olaparib; first compound 0.253 µM): 0.579 | relative viability (XMD8-85 + Olaparib; first compound 0.8 µM): 0.747 | relative viability (XMD8-85 + Olaparib; first compound 2.53 µM): 0.458 | relative viability (XMD8-85 + Olaparib; first compound 8 µM): 0.387 | relative viability (4EGI-1 + Bortezomib; first compound 0.5 µM): 1.01 | relative viability (4EGI-1 + Bortezomib; first compound 1.581 µM): 0.686 | relative viability (4EGI-1 + Bortezomib; first compound 5 µM): 0.898 | relative viability (4EGI-1 + Bortezomib; first compound 15.81 µM): 0.618 | relative viability (4EGI-1 + Bortezomib; first compound 50 µM): 0.497

Calu-6
relative viability (4EGI-1 + Linsitinib; first compound 0.5 µM): 1.11 | relative viability (4EGI-1 + Linsitinib; first compound 1.581 µM): 0.729 | relative viability (4EGI-1 + Linsitinib; first compound 5 µM): 0.995 | relative viability (4EGI-1 + Linsitinib; first compound 15.81 µM): 0.851 | relative viability (4EGI-1 + Linsitinib; first compound 50 µM): 0.9 | relative viability (XMD8-85 + Alpelisib; first compound 0.08 µM): 1.02 | relative viability (XMD8-85 + Alpelisib; first compound 0.253 µM): 0.985 | relative viability (XMD8-85 + Alpelisib; first compound 0.8 µM): 1.05 | relative viability (XMD8-85 + Alpelisib; first compound 2.53 µM): 1.08 | relative viability (XMD8-85 + Alpelisib; first compound 8 µM): 0.865 | relative viability (XMD8-85 + Olaparib; first compound 0.08 µM): 0.621 | relative viability (XMD8-85 + Olaparib; first compound 0.253 µM): 0.574 | relative viability (XMD8-85 + Olaparib; first compound 0.8 µM): 0.596 | relative viability (XMD8-85 + Olaparib; first compound 2.53 µM): 0.558 | relative viability (XMD8-85 + Olaparib; first compound 8 µM): 0.395 | relative viability (4EGI-1 + Bortezomib; first compound 0.5 µM): 0.982 | relative viability (4EGI-1 + Bortezomib; first compound 1.581 µM): 0.877 | relative viability (4EGI-1 + Bortezomib; first compound 5 µM): 1.15 | relative viability (4EGI-1 + Bortezomib; first compound 15.81 µM): 0.989 | relative viability (4EGI-1 + Bortezomib; first compound 50 µM): 0.33

LK-2
relative viability (4EGI-1 + Linsitinib; first compound 0.5 µM): 0.587 | relative viability (4EGI-1 + Linsitinib; first compound 1.581 µM): 0.357 | relative viability (4EGI-1 + Linsitinib; first compound 5 µM): 0.777 | relative viability (4EGI-1 + Linsitinib; first compound 15.81 µM): 0.604 | relative viability (4EGI-1 + Linsitinib; first compound 50 µM): 0.549 | relative viability (XMD8-85 + Alpelisib; first compound 0.08 µM): 1.16 | relative viability (XMD8-85 + Alpelisib; first compound 0.253 µM): 1.04 | relative viability (XMD8-85 + Alpelisib; first compound 0.8 µM): 1.12 | relative viability (XMD8-85 + Alpelisib; first compound 2.53 µM): 1.26 | relative viability (XMD8-85 + Alpelisib; first compound 8 µM): 0.694 | relative viability (XMD8-85 + Olaparib; first compound 0.08 µM): 0.802 | relative viability (XMD8-85 + Olaparib; first compound 0.253 µM): 0.815 | relative viability (XMD8-85 + Olaparib; first compound 0.8 µM): 0.555 | relative viability (XMD8-85 + Olaparib; first compound 2.53 µM): 0.669 | relative viability (XMD8-85 + Olaparib; first compound 8 µM): 0.448

A549
relative viability (4EGI-1 + Linsitinib; first compound 0.5 µM): 0.825 | relative viability (4EGI-1 + Linsitinib; first compound 5 µM): 0.573 | relative viability (4EGI-1 + Linsitinib; first compound 15.81 µM): 0.579 | relative viability (4EGI-1 + Linsitinib; first compound 50 µM): 0.611 | relative viability (XMD8-85 + Alpelisib; first compound 0.08 µM): 0.744 | relative viability (XMD8-85 + Alpelisib; first compound 0.253 µM): 0.883 | relative viability (XMD8-85 + Alpelisib; first compound 0.8 µM): 0.806 | relative viability (XMD8-85 + Alpelisib; first compound 2.53 µM): 0.807 | relative viability (XMD8-85 + Alpelisib; first compound 8 µM): 0.759 | relative viability (XMD8-85 + Olaparib; first compound 0.08 µM): 0.192 | relative viability (XMD8-85 + Olaparib; first compound 0.253 µM): 0.371 | relative viability (XMD8-85 + Olaparib; first compound 0.8 µM): 0.306 | relative viability (XMD8-85 + Olaparib; first compound 2.53 µM): 0.234 | relative viability (XMD8-85 + Olaparib; first compound 8 µM): 0.227

NCI-H522
relative viability (XMD8-85 + Olaparib; first compound 0.08 µM): 0.699 | relative viability (XMD8-85 + Olaparib; first compound 0.253 µM): 0.632 | relative viability (XMD8-85 + Olaparib; first compound 0.8 µM): 0.615 | relative viability (XMD8-85 + Olaparib; first compound 2.53 µM): 0.537 | relative viability (XMD8-85 + Olaparib; first compound 8 µM): 0.568

NCI-H2342
relative viability (XMD8-85 + Olaparib; first compound 0.08 µM): 0.421 | relative viability (XMD8-85 + Olaparib; first compound 0.253 µM): 0.466 | relative viability (XMD8-85 + Olaparib; first compound 0.8 µM): 0.359 | relative viability (XMD8-85 + Olaparib; first compound 2.53 µM): 0.487 | relative viability (XMD8-85 + Olaparib; first compound 8 µM): 0.408

SK-MES-1
relative viability (4EGI-1 + Linsitinib; first compound 0.5 µM): 1.12 | relative viability (4EGI-1 + Linsitinib; first compound 1.581 µM): 1.07 | relative viability (4EGI-1 + Linsitinib; first compound 5 µM): 1.1 | relative viability (4EGI-1 + Linsitinib; first compound 15.81 µM): 0.887 | relative viability (4EGI-1 + Linsitinib; first compound 50 µM): 0.987 | relative viability (XMD8-85 + Alpelisib; first compound 0.08 µM): 0.769 | relative viability (XMD8-85 + Alpelisib; first compound 0.253 µM): 0.654 | relative viability (XMD8-85 + Alpelisib; first compound 0.8 µM): 1.03 | relative viability (XMD8-85 + Alpelisib; first compound 2.53 µM): 1.02 | relative viability (XMD8-85 + Olaparib; first compound 0.08 µM): 0.819 | relative viability (XMD8-85 + Olaparib; first compound 0.253 µM): 0.683 | relative viability (XMD8-85 + Olaparib; first compound 2.53 µM): 0.707 | relative viability (XMD8-85 + Olaparib; first compound 8 µM): 0.408

NCI-H358
relative viability (4EGI-1 + Linsitinib; first compound 0.5 µM): 0.882 | relative viability (4EGI-1 + Linsitinib; first compound 1.581 µM): 0.689 | relative viability (4EGI-1 + Linsitinib; first compound 5 µM): 0.889 | relative viability (4EGI-1 + Linsitinib; first compound 15.81 µM): 0.69 | relative viability (4EGI-1 + Linsitinib; first compound 50 µM): 0.208 | relative viability (XMD8-85 + Alpelisib; first compound 0.08 µM): 0.957 | relative viability (XMD8-85 + Alpelisib; first compound 0.253 µM): 0.856 | relative viability (XMD8-85 + Alpelisib; first compound 0.8 µM): 1.11 | relative viability (XMD8-85 + Alpelisib; first compound 2.53 µM): 0.854 | relative viability (XMD8-85 + Alpelisib; first compound 8 µM): 0.584 | relative viability (XMD8-85 + Olaparib; first compound 0.08 µM): 0.508 | relative viability (XMD8-85 + Olaparib; first compound 0.253 µM): 0.565 | relative viability (XMD8-85 + Olaparib; first compound 0.8 µM): 0.625 | relative viability (XMD8-85 + Olaparib; first compound 2.53 µM): 0.691 | relative viability (XMD8-85 + Olaparib; first compound 8 µM): 0.445

NCI-H1395
relative viability (4EGI-1 + Linsitinib; first compound 0.5 µM): 1.29 | relative viability (4EGI-1 + Linsitinib; first compound 5 µM): 1.52 | relative viability (4EGI-1 + Linsitinib; first compound 15.81 µM): 0.874 | relative viability (4EGI-1 + Linsitinib; first compound 50 µM): 0.534 | relative viability (XMD8-85 + Alpelisib; first compound 0.08 µM): 0.927 | relative viability (XMD8-85 + Alpelisib; first compound 0.253 µM): 0.907 | relative viability (XMD8-85 + Alpelisib; first compound 0.8 µM): 0.933 | relative viability (XMD8-85 + Alpelisib; first compound 2.53 µM): 0.965 | relative viability (XMD8-85 + Alpelisib; first compound 8 µM): 1.08 | relative viability (XMD8-85 + Olaparib; first compound 0.08 µM): 0.421 | relative viability (XMD8-85 + Olaparib; first compound 0.253 µM): 0.426 | relative viability (XMD8-85 + Olaparib; first compound 0.8 µM): 0.43 | relative viability (XMD8-85 + Olaparib; first compound 2.53 µM): 0.474 | relative viability (XMD8-85 + Olaparib; first compound 8 µM): 0.452

NCI-H2170
relative viability (XMD8-85 + Alpelisib; first compound 0.08 µM): 0.759 | relative viability (XMD8-85 + Alpelisib; first compound 0.253 µM): 0.812 | relative viability (XMD8-85 + Alpelisib; first compound 2.53 µM): 0.816 | relative viability (XMD8-85 + Alpelisib; first compound 8 µM): 0.495 | relative viability (XMD8-85 + Olaparib; first compound 0.08 µM): 0.51 | relative viability (XMD8-85 + Olaparib; first compound 0.253 µM): 0.627 | relative viability (XMD8-85 + Olaparib; first compound 0.8 µM): 0.599 | relative viability (XMD8-85 + Olaparib; first compound 2.53 µM): 0.601 | relative viability (XMD8-85 + Olaparib; first compound 8 µM): 0.532

NCI-H1650
relative viability (XMD8-85 + Olaparib; first compound 0.08 µM): 0.877 | relative viability (XMD8-85 + Olaparib; first compound 0.253 µM): 0.91 | relative viability (XMD8-85 + Olaparib; first compound 0.8 µM): 0.951 | relative viability (XMD8-85 + Olaparib; first compound 2.53 µM): 0.699 | relative viability (XMD8-85 + Olaparib; first compound 8 µM): 0.303 | relative viability (4EGI-1 + Bortezomib; first compound 0.5 µM): 0.197 | relative viability (4EGI-1 + Bortezomib; first compound 5 µM): 0.219 | relative viability (4EGI-1 + Bortezomib; first compound 15.81 µM): 0.216 | relative viability (4EGI-1 + Bortezomib; first compound 50 µM): 0.189

ChaGo-K-1
relative viability (XMD8-85 + Olaparib; first compound 0.08 µM): 0.409 | relative viability (XMD8-85 + Olaparib; first compound 0.253 µM): 0.43 | relative viability (XMD8-85 + Olaparib; first compound 0.8 µM): 0.409 | relative viability (XMD8-85 + Olaparib; first compound 2.53 µM): 0.433 | relative viability (XMD8-85 + Olaparib; first compound 8 µM): 0.347 | relative viability (4EGI-1 + Bortezomib; first compound 0.5 µM): 0.995 | relative viability (4EGI-1 + Bortezomib; first compound 5 µM): 0.954 | relative viability (4EGI-1 + Bortezomib; first compound 15.81 µM): 0.659 | relative viability (4EGI-1 + Bortezomib; first compound 50 µM): 0.434

Source: the supplement of paper PMC10307832
